Experimental data: the supplement of paper PMC4862054

How the values were obtained:
[1] = test system: DU-4475; experiment: normalised response (% of control), CellTiter-Glo; higher = more viable cells (100 = DMSO, 0 = benzethonium chloride kill control); settings: incubation time: 72 h
Outline: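 Two readouts were taken after 72 h: CellTox Green fluorescence (485/520 nm) first, then CellTiter-Glo luminescence after 10 min at room temperature. Breast cancer cell lines had been seeded as 20 µl suspension into 384-well plates holding compound at 5 concentrations in 10-fold steps across a compound-specific 10,000-fold range. Each value is a normalised signal at a single concentration, with plates scaled to 0.1 % DMSO (100) and a positive kill control (0).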

[2] = test system: HDQ-P1; settings: 72 h
Outline: (§1)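 EC50 is the value from a fitted percent-inhibition dose-response curve, censored at the highest concentration, and rows with zero drug sensitivity score were not kept. The underlying assay seeded breast cancer cell lines in 20 µl onto 384-well plates pre-loaded with compound in 5 µl medium for 72 h. Viability was then read by CellTiter-Blue fluorescence at 560/590 nm after 2 h at 37 °C, with each plate normalised to vehicle and a positive kill control.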

[3] = test system: BT-549; settings: 72 h
Outline: as §1

[4] = test system: CAL-51; settings: 72 h
Outline: (§2)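 The plates used were 384-well plates holding compound at 5 concentrations in 10-fold steps across a compound-specific 10,000-fold range, into which breast cancer cell lines were seeded in 20 µl suspension. Following 72 h incubation, CellTox Green fluorescence was read at 485/520 nm, and CellTiter-Glo luminescence was read after 10 min at room temperature. Normalisation on each plate used 0.1 % DMSO and a positive kill control. Dose-response curves gave the EC50, which was censored at the top concentration.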

[5] = test system: CAL-85-1; settings: 72 h
Outline: as §2

[6] = test system: SK-BR-3; settings: 72 h
Outline: as §2

[7] = test system: HDQ-P1; settings: 72 h; remark: listed apart in the source
Outline: as §2

[8] = test system: DU-4475; settings: 72 h
Outline: as §2

[9] = test system: MDA-MB-468; settings: 72 h
Outline: as §2

[10] = test system: BT-474; settings: 72 h
Outline: as §2

[11] = test system: HCC1143; settings: 72 h
Outline: as §2

[12] = test system: Hs578T; settings: 72 h
Outline: as §2

[13] = test system: MDA-MB-231; settings: 72 h
Outline: as §2

[14] = test system: HCC1937; settings: 72 h
Outline: as §2

[15] = test system: MFM-223; settings: 72 h
Outline: as §2

[16] = test system: MDA-MB-453; settings: 72 h
Outline: as §2

[17] = test system: MCF-10A; settings: 72 h
Outline: as §2

[18] = test system: BT-549; settings: 72 h; remark: listed apart in the source
Outline: as §2

[19] = test system: CAL-120; settings: 72 h
Outline: as §2

[20] = test system: CAL-51; settings: 72 h; remark: listed apart in the source
Description: (§3)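 Drug sensitivity and resistance testing (DSRT) of breast cancer cell lines in 384-well plates, 5 concentrations in 10-fold dilutions over a compound-specific 10,000-fold range. After 72 h, cytotoxicity was read by CellTox Green fluorescence and viability by CellTiter-Glo luminescence (multiplexed), normalised to DMSO and benzethonium chloride controls. EC50 is the inflection point of the fitted dose-response curve (bottom asymptote free, so it can be relative for partial curves) and is censored at the highest tested concentration. Rows with DSS 0 (no meaningful response) were excluded.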

[21] = test system: CAL-85-1; settings: 72 h; remark: listed apart in the source
Description: as §3

[22] = test system: HDQ-P1; settings: 72 h; remark: listed apart in the source
Description: as §3

[23] = test system: MDA-MB-468; settings: 72 h; remark: listed apart in the source
Description: as §3

[24] = test system: MDA-MB-231; settings: 72 h; remark: listed apart in the source
Description: as §3

[25] = test system: MCF-10A; settings: 72 h; remark: listed apart in the source
Description: as §3

[26] = test system: MDA-MB-453; settings: 72 h; remark: listed apart in the source
Outline: as §1

[27] = test system: MDA-MB-436; settings: 72 h
Outline: as §2

[28] = test system: SK-BR-3; settings: 72 h; remark: listed apart in the source
Outline: as §1

[29] = test system: BT-474; settings: 72 h; remark: listed apart in the source
Description: as §3

[30] = test system: CAL-148; settings: 72 h
Outline: as §1

[31] = test system: HCC1599; settings: 72 h
Outline: as §2

[32] = test system: CAL-148; settings: 72 h; remark: listed apart in the source
Outline: as §2

[33] = test system: Hs578T; settings: 72 h; remark: listed apart in the source
Description: as §3

[34] = test system: MFM-223; settings: 72 h; remark: listed apart in the source
Description: as §3

[35] = test system: CAL-148; settings: 72 h; remark: listed apart in the source
Description: as §3

Compound: CC(C)C(=O)Nc1ccc([N+](=O)[O-])c(C(F)(F)F)c1 [Flutamide] (1000 nM)
- normalised response [1]: 95.9%

Compound: Nc1nc(Cl)nc2c1ncn2[C@@H]1O[C@H](CO)[C@@H](O)[C@@H]1F [Clofarabine] (1000 nM)
- normalised response [1]: 70.9%

Compound: O=C(c1cc(Cc2n[nH]c(=O)c3ccccc23)ccc1F)N1CCN(C(=O)C2CC2)CC1 [Olaparib] (1000 nM)
- normalised response [1]: 92.5%

Compound: CC(C)C[C@H](NC(=O)[C@H](CCc1ccccc1)NC(=O)CN1CCOCC1)C(=O)N[C@@H](Cc1ccccc1)C(=O)N[C@@H](CC(C)C)C(=O)[C@@]1(C)CO1 [Carfilzomib] (100 nM)
- normalised response [1]: 14.6%

Compound: O=NN(CCCl)C(=O)NC1CCCCC1 [Lomustine] (1000 nM)
- normalised response [1]: 99.2%

Compound: Cn1nnc2c(C(N)=O)ncn2c1=O [Temozolomide]
- EC50, CellTiter-Blue viability [2]: 7.85 µM
- EC50, CellTiter-Blue viability [3]: 1.33 µM

Compound: NC1(c2ccc(-c3nc4ccn5c(=O)[nH]nc5c4cc3-c3ccccc3)cc2)CCC1 [MK-2206] (100 nM)
- normalised response [1]: 97.5%

Compound: C[C@@H](C(=O)O)c1ccc(-c2ccccc2)c(F)c1 [Tarenflurbil] (1000 nM)
- normalised response [1]: 94.6%

Compound: COc1cc2c(cc1-c1c(C)noc1C)ncc1[nH]c(=O)n([C@H](C)c3ccccn3)c12 [I-BET151]
- EC50, CellTiter-Glo [4]: 1.38 µM
- EC50, CellTiter-Glo [5]: 0.834 µM
- EC50, CellTiter-Glo [6]: 1.22 µM
- EC50, CellTiter-Glo [7]: 1.34 µM
- EC50, CellTiter-Glo [8]: 4.08 µM
- EC50, CellTiter-Glo [9]: 3.11 µM
- EC50, CellTiter-Glo [10]: 6.72 µM
- EC50, CellTiter-Glo [11]: 1.38 µM
- EC50, CellTiter-Glo [12]: 0.678 µM
- EC50, CellTiter-Glo [13]: 1.31 µM
- EC50, CellTiter-Glo [14]: 0.537 µM
- EC50, CellTiter-Glo [15]: 0.913 µM
- EC50, CellTiter-Glo [16]: 2.19 µM
- EC50, CellTiter-Glo [17]: 0.855 µM
- EC50, CellTiter-Glo [18]: 0.673 µM
- EC50, CellTiter-Glo [19]: 0.574 µM
- EC50, CellTox Green [20]: 1.74 µM
- EC50, CellTox Green [21]: 1.37 µM
- EC50, CellTox Green [22]: 0.123 µM
- EC50, CellTox Green [23]: 3.14 µM
- EC50, CellTox Green [24]: 8.48 µM
- EC50, CellTox Green [25]: 6.94 µM

Compound: CCCCCOC(=O)Nc1nc(=O)n([C@@H]2O[C@H](C)[C@@H](O)[C@H]2O)cc1F [Capecitabine]
- EC50, CellTiter-Blue viability [26]: 7.52 µM
- EC50, CellTiter-Glo [27]: 5.97 µM
- EC50, CellTiter-Blue viability [28]: 9.2 µM

Compound: C[C@]12C=CC(=O)C=C1CC[C@@H]1[C@@H]2C(=O)C[C@@]2(C)[C@H]1CC[C@]2(O)C(=O)CO [Prednisone] (1000 nM)
- normalised response [1]: 99%

Compound: Cc1cc2c(F)c(Oc3ncnn4cc(OC[C@@H](C)O)c(C)c34)ccc2[nH]1 [Brivanib] (100 nM)
- normalised response [1]: 101%

Compound: C[C@@H]1C[C@H]2[C@@H]3CCC4=CC(=O)C=C[C@]4(C)[C@@]3(F)[C@@H](O)C[C@]2(C)[C@@]1(O)C(=O)CO [Dexamethasone] (1000 nM)
- normalised response [1]: 96.2%

Compound: C[C@@H](C(=O)O)c1ccc(-c2ccccc2)c(F)c1 [Tarenflurbil]
- EC50, CellTiter-Blue viability [26]: 1.41 µM
- EC50, CellTox Green [29]: > 10 µM

Compound: COc1cc2c(N3CCN(C(=O)Nc4ccc(OC(C)C)cc4)CC3)ncnc2cc1OCCCN1CCCCC1 [Tandutinib]
- EC50, CellTiter-Blue viability [30]: 0.605 µM

Compound: Cc1cc2c(F)c(Oc3ncnn4cc(OC[C@@H](C)O)c(C)c34)ccc2[nH]1 [Brivanib]
- EC50, CellTiter-Glo [4]: 0.176 µM
- EC50, CellTox Green [21]: > 1 µM

Compound: COc1cc2c(N3CCN(C(=O)Nc4ccc(OC(C)C)cc4)CC3)ncnc2cc1OCCCN1CCCCC1 [Tandutinib] (100 nM)
- normalised response [1]: 99.7%

Compound: CCCCCOC(=O)Nc1nc(=O)n([C@@H]2O[C@H](C)[C@@H](O)[C@H]2O)cc1F [Capecitabine] (1000 nM)
- normalised response [1]: 98.6%

Compound: O=C(O)CC[C@H]1CC[C@@](c2cc(F)ccc2F)(S(=O)(=O)c2ccc(Cl)cc2)CC1 [MK-0752] (100 nM)
- normalised response [1]: 99.2%

Compound: CC(C)n1nc(-c2ccc3oc(N)nc3c2)c2c(N)ncnc21 [INK128]
- EC50, CellTiter-Glo [4]: 0.0159 µM
- EC50, CellTiter-Glo [5]: 0.0255 µM
- EC50, CellTiter-Glo [6]: 0.00843 µM
- EC50, CellTiter-Glo [7]: 0.024 µM
- EC50, CellTiter-Glo [31]: 0.0288 µM
- EC50, CellTiter-Glo [8]: 0.188 µM
- EC50, CellTiter-Glo [9]: 0.0406 µM
- EC50, CellTiter-Glo [10]: 0.0319 µM
- EC50, CellTiter-Glo [11]: 0.0382 µM
- EC50, CellTiter-Glo [12]: 0.0278 µM
- EC50, CellTiter-Glo [13]: 0.0374 µM
- EC50, CellTiter-Glo [14]: 0.173 µM
- EC50, CellTiter-Glo [15]: 0.0154 µM
- EC50, CellTiter-Glo [27]: 0.0236 µM
- EC50, CellTiter-Glo [16]: 0.0168 µM
- EC50, CellTiter-Glo [32]: 0.0322 µM
- EC50, CellTiter-Glo [17]: 0.043 µM
- EC50, CellTiter-Glo [18]: 0.0227 µM
- EC50, CellTiter-Glo [19]: 0.0278 µM
- EC50, CellTox Green [33]: 0.13 µM
- EC50, CellTox Green [34]: 0.494 µM
- EC50, CellTox Green [35]: 0.0569 µM

Compound: CC(C)C(=O)Nc1ccc([N+](=O)[O-])c(C(F)(F)F)c1 [Flutamide]
- EC50, CellTiter-Glo [4]: > 10 µM

Compound: NC(=O)c1cccc2cn(-c3ccc([C@@H]4CCCNC4)cc3)nc12 [MK-4827] (1000 nM)
- normalised response [1]: 86%

Compound: Cn1nnc2c(C(N)=O)ncn2c1=O [Temozolomide] (1000 nM)
- normalised response [1]: 95%

Compound: NC(=O)NO [Hydroxyurea] (10000 nM)
- normalised response [1]: 100%

Compound: C[C@@H]1C[C@H]2[C@@H]3CCC4=CC(=O)C=C[C@]4(C)[C@@]3(F)[C@@H](O)C[C@]2(C)[C@@]1(O)C(=O)CO [Dexamethasone]
- EC50, CellTiter-Blue viability [26]: 0.0157 µM
- EC50, CellTiter-Glo [16]: 0.379 µM
- EC50, CellTiter-Glo [19]: 0.00749 µM
